{"source": "patent US20080193566A1", "about": "“Use of high dose concentrations of gaseous nitric oxide” (priority 2007, published 2008)", "key": {"[1]": {"assay": "Viability after 25,000 ppm gNO (Example 5), NHVE", "type": "cell-based", "settings": "human, normal human endothelial lung vascular cells (NHVE)", "method": "(§1) The purpose of this example is to illustrate the effects on normal human cell lines compared to the effects on cancerous cell lines of high-dosage gNO.\n(§2) The above study was repeated. In addition to the A549, NCI-H23, NCI-H460, HTB-58, H2170 and H441 cells, four other cell lines were added—normal human bronchial epithelial cells (NHBE), normal human endothelial lung vascular cells (NHVE), normal human fibroblast cells (NHLF), and a squamous lung cancer cell line (H2170).\n(§3) FIG. 8, embodiments A, B, C, and D, illustrate the viability of thee three normal human cell lines and one cancerous cell line to which 25,000 ppm gNO is administered for up to 15 minutes. The NHBE cells (embodiment A), experienced a decrease in viability after only 6 minutes of 25,000 ppm gNO administration, resulting in a viability of less than 10%. The NHVE cells (embodiment B) experienced a decrease in viability after only 6 minutes of 25,000 ppm gNO administration, resulting in a viability of less than 10%. The NHLF cells (embodiment C) also experienced a decrease in viability after only 6 minutes of 25,000 ppm gNO administration, resulting in a viability of about 30%. The H2170 cancerous cells experienced a dramatic decrease in viability after only 6 minutes of 25,000 ppm gNO administration, resulting in a viability of less than 10%."}, "[2]": {"assay": "Viability after 25,000 ppm gNO (Example 5), NHLF", "type": "cell-based", "settings": "human, normal human lung fibroblast cells (NHLF)", "method": "as §1, §2, §3"}, "[3]": {"assay": "Viability after 25,000 ppm gNO (Example 5), NHBE", "type": "cell-based", "settings": "human, normal human bronchial epithelial cells (NHBE)", "method": "as §1, §2, §3"}, "[4]": {"test_system": "non-small cell lung cancer (NSCLC) cells lines", "assay": "MTS cell proliferation assay, 25,000 ppm gNO (Example 4), NSCLC cell line panel", "type": "cell-based, human", "settings": "between 6 and 9 minutes, all five cancer cell lines", "excerpt": "The purpose of this example is to illustrate the tumorcidal activity of high-dosage gNO. We examined the cellular sensitivity to 25,000 ppm of gNO on 5 non-small cell lung cancer (NSCLC) cells lines by an MTS cell proliferation assay.\nHuman lung cancer cell lines A549, NCI-H23, NCI-H460, HTB-58, H2170, and H441 (commercially available from American Type Culture Collection (“ATCC”), Manassas, Va.) were maintained in culture medium recommended by ATCC. All media were supplemented with 1% penicillin/streptomycin and 10% fetal bovine serum (commercially available from Invitrogen Gibco-BRL, Burlington, Ontario, Canada). […]\nAfter 24 hours, the A549, NCI-H23, NCI-H460, HTB-58, H2170 and H441 cells were treated with 25,000 ppm gNO or air (control) for 1 minute, 3 minutes, 6 minutes, 9 minutes, 10 minutes, 20 minutes, and 30 minutes. Immediately following treatment, the viability of the cells was determined using a colorimetric MTS (3-(4,5-dimethylthiazol-2-yl)-5-(3-carboxymethoxyphenyl)-2-(4-sulfophenyl)-2H-tetrazolium, inner salt) cell proliferation assay (commercially available as the CellTiter 96® Aqueous One Solution Cell Proliferation Assay (MTS) from Promega, Madison, Wis., USA) according to the manufacturer's protocol. […] Absorbance was measured at 490 nm for each well using a micro-plate reader (commercially available from Dynex Technologies, Chantilly, Va., USA). […]"}, "[5]": {"test_system": "A549-epithelial lung carcinoma cells", "assay": "MTS proliferation assay, A549 cells exposed to 200 or 350 ppm gNO (Example 1)", "type": "cell-based, human", "set-up": "MTS assay reading, Average / MTS assay reading, Corrected Average: unit not given here", "settings": "for MTS assay reading, Corrected Average: blank subtracted; for Survival: vs air control", "method": "The purpose of this example is to illustrate the effect of continuous gaseous nitric oxide (gNO) 200 ppm and 350 ppm compared to air (control) on the survival of a representative line of cancer cells. Cancer cell lines (A549-epithelial lung carcinoma cells and H460-epithelial metastatic; large cell lung cancer cells) were prepared in F12 medium and suspended in six 96-well plates (3 treatment and 3 controls). […] The plates then were removed and cell viability assessed by an MTS proliferation assay.\n(§4) When exposed to 350 ppm of gNO, however, cancer cell survival rates decrease dramatically."}, "[6]": {"test_system": "H460-epithelial metastatic; large cell lung cancer cells", "assay": "MTS proliferation assay, H460 cells exposed to 350 ppm gNO (Example 1)", "type": "cell-based, human", "settings": "350 ppm NO, 2 hours, RPMI medium", "excerpt": "The purpose of this example is to illustrate the effect of continuous gaseous nitric oxide (gNO) 200 ppm and 350 ppm compared to air (control) on the survival of a representative line of cancer cells. […] […] The plates then were removed and cell viability assessed by an MTS proliferation assay.\nas §4"}, "[7]": {"test_system": "cancer cell lines", "assay": "Viability after 25,000 ppm gNO (Example 5, repeat), cancer cell line panel", "type": "cell-based, human", "settings": "between about 6 and about 9 minutes, all five cancer cell lines, repeat study", "method": "as §1, §2"}, "[8]": {"test_system": "Staphylococcus aureus", "assay": "S. aureus on blood agar plates exposed to 25,000 ppm gNO (Example 2)", "type": "cell-based", "excerpt": "The purpose of this example is to observe the possibility of a novel bactericidal high dose (25,000 ppm) effect of gaseous nitric oxide (gNO) on an ATCC strain of Staphylococcous aureus plated on a blood agar media and determine a time effect of this dosage.\nA closed environment treatment chamber was used (see, “A direct nitric oxide gas delivery system for bacterial and mammalian cell cultures,” A. Ghaffari, D. H. Neil, A. Ardakani, J. Road, A. Ghahary, C. C. Miller. Nitric Oxide 12(3):129-140, 2005, herein incorporated by reference in its entirety). The following steps were performed: • 1. Calibrated the AeroNOx analyzer as per standard procedure. • 2. Calibrated the closed environment treatment chamber as per standard procedure. • 3. In a 50 mL tube, known Staphylococcus aureus bacteria in 10 mL Nutrient Broth was grown overnight or for about 12 hours in a shaker incubator. • 4. Measured optical density of grown Staphylococcus aureus using a spectrophotometer set at 600 nm. Used original nutrient broth as a blank. O.D. should be 1.0±10%. • 5. Turned on closed environment treatment chamber. • 6. Labeled three plates: Air, NO+1 minute, NO+3 minutes. • 7. Immersed a sterile cotton swab into the bacterial mixture in the 50 mL tube and shaked off excess liquid. • 8. Swiped one plate entirely in two directions with the swab. • 9. […] After incubation, recorded results with digital pictures. • 14. […]"}, "[9]": {"settings": "200 ppm NO, 1 hour, HBSS medium"}, "[10]": {"settings": "200 ppm NO, 2.5 hours, F12 medium"}, "[11]": {"settings": "200 ppm NO, 2.5 hours, HBSS medium"}, "[12]": {"settings": "200 ppm NO, 3.5 hours, F12 medium"}, "[13]": {"settings": "200 ppm NO, 3.5 hours, HBSS medium"}, "[14]": {"settings": "350 ppm NO, 2 hours, F12 medium"}}, "data": [{"smiles": "[N]=O", "note": "[gNO, nitric oxide]", "values": [{"measurement": "viability at 6 min, 25000 ppm", "setting": "[1]", "value": "< 10", "unit": "%"}, {"measurement": "viability at 6 min, 25000 ppm", "setting": "[2]; 6 minutes", "value": "~30", "unit": "%"}, {"measurement": "viability at 15 min, 25000 ppm", "setting": "[2]; after 15 minutes of exposure", "value": 30, "unit": "%"}, {"measurement": "viability at 6 min, 25000 ppm", "setting": "[3]", "value": "< 10", "unit": "%"}, {"measurement": "cells killed", "setting": "[4]", "value": "75-95%"}, {"measurement": "MTS assay reading, Average", "setting": "[5]; 200 ppm NO, 1 hour, F12 medium", "value": 0.852}, {"measurement": "MTS assay reading, Corrected Average", "setting": "[5]; 200 ppm NO, 1 hour, F12 medium", "value": 0.621}, {"measurement": "Survival", "setting": "[5]; 200 ppm NO, 1 hour, F12 medium", "value": "about 92%"}, {"measurement": "MTS assay reading, Average", "setting": "[5]; [9]", "value": 0.06}, {"measurement": "MTS assay reading, Corrected Average", "setting": "[5]; [9]", "value": 0}, {"measurement": "MTS assay reading, Average", "setting": "[5]; [10]", "value": 1.276}, {"measurement": "MTS assay reading, Corrected Average", "setting": "[5]; [10]", "value": 0.918}, {"measurement": "Survival", "setting": "[5]; [10]", "value": "about 90%"}, {"measurement": "MTS assay reading, Average", "setting": "[5]; [11]", "value": 0.06}, {"measurement": "MTS assay reading, Corrected Average", "setting": "[5]; [11]", "value": 0}, {"measurement": "MTS assay reading, Average", "setting": "[5]; [12]", "value": 1.529}, {"measurement": "MTS assay reading, Corrected Average", "setting": "[5]; [12]", "value": 1.059}, {"measurement": "Survival", "setting": "[5]; [12]", "value": "about 87%"}, {"measurement": "MTS assay reading, Average", "setting": "[5]; [13]", "value": 0.061}, {"measurement": "MTS assay reading, Corrected Average", "setting": "[5]; [13]", "value": 0}, {"measurement": "MTS assay reading, Average", "setting": "[5]; [14]", "value": 0.110}, {"measurement": "MTS assay reading, Corrected Average", "setting": "[5]; [14]", "value": 0.009}, {"measurement": "MTS assay reading, Average", "setting": "[6]", "value": 0.158}, {"measurement": "MTS assay reading, Corrected Average", "setting": "[6]; blank subtracted", "value": 0.037}, {"measurement": "cells killed", "setting": "[7]", "value": "75-95%"}, {"measurement": "plate appearance after incubation (FIG. 4)", "setting": "[8]; 1 minute of exposure", "value": "still shows signs of the S. aureus"}, {"measurement": "plate appearance after incubation (FIG. 5)", "setting": "[8]; 3 minutes of exposure", "value": "no signs of the S. aureus"}]}]}
